What was measured:
Assay type in all cases: cell-based
[1] = system: GABAAR (β3^HA) at the plasma membrane, no UT; experiment: GABAAR internalization by immunofluorescence in CHO expressing GABAAR alone; conditions: hUII 10^−8 M, Iso 10^−4 M or both
Protocol: (§1) For double-immunofluorescence, non-permeabilized living CHO cells expressing UT and/or α2β3 ^HAγ2 GABAA receptors were washed two times in PBS, and incubated with monoclonal mouse anti-c-myc and rabbit polyclonal anti-HA (1∶200, Santa-cruz) for 1 h on ice in DMEM. Excess antibody was removed and cells were incubated with the different receptor agonists for 30 min at RT. After several rinses in PBS, cells were fixed in 4% paraformaldehyde at 4°C for 20 min, washed three times in PBS and then incubated at RT for 2 h with appropriate secondary antibodies, i.e. Alexa-488- and 594-conjugated donkey anti-mouse IgGs diluted 1∶300 (Invitrogen). After washing, coverslips were mounted in Eukitt (VWR International, Strasbourg, France).
(§2) All preparations were examined using a confocal laser-scanning microscope (Leica, Heidelberg, Germany) equipped with a Diaplan optical system, a UV laser (excitation wavelength 405 nm) and argon/krypton ion (excitation wavelengths 488/594 nm) laser.

[2] = system: GABAAR (β3^HA) at the plasma membrane of CHO co-expressing human UT; experiment: GABAAR internalization by immunofluorescence in CHO-UT-GABAAR (α2β3^HAγ2); conditions: hUII 10^−8 M, Iso 10^−4 M or both; 60 min (Figure 9 legend); mean ± SEM, 3 to 18 cells
Protocol: as §1, with “Excess antibody was removed and cells were incubated with the different receptor agonists for 30 min at RT.” left out
as §2

[3] = system: UT in human U87 glioma; experiment: Flow cytometry of cell surface UT in U87 glioma; conditions: hUII 10^−8 M, 30 min
Protocol: (§3) The human cell line from glioblastoma U87 was obtained from the American Type Culture Collection (LGC Standards, Molsheim, France). U87 cells were maintained in DMEM containing 10% FBS and 1% sodium pyruvate. NHA-Astrocytes (Lonza, Walkersville, MD, USA) were cultivated in DMEM culture medium supplemented with 2 mM glutamine, 5 mM HEPES, 1% non essential amino acids, 1% sodium pyruvate, B27, 25 ng/ml EGF, 1% of the antibiotic-antimycotic solution and 10% FBS. All cells were incubated at 37°C in a humidified atmosphere containing 5% CO2. Culture media were replaced every three days.
(§4) Human astrocytes and glioma U87 grown in 75-cm2 flasks until confluence were washed in PBS, detached and spun down at 4°C. The cell pellet was washed, re-suspended in PBS containing 1% BSA and incubated with 10 µg/mL non-immune rabbit IgGs for 30 min. […] Cells were incubated with an FITC- or PerCP-conjugated goat anti-rabbit secondary antibody (Santa Cruz) diluted 1∶200 and measured in the FL1 (530 nm) or FL3 (670 nm) channel. Cells were analyzed on a FACScalibur flow cytometer (BD Biosciences) operated with the Cell QuestTM software. Samples in which the primary antibodies were omitted were used as control to normalize mean fluorescence levels. […] Each histogram plot was recorded from at least 10,000 gated events.

[4] = system: human UT^c-myc; experiment: Cell surface ELISA of UT^c-myc in CHO; conditions: hUII 10^−8 M, 30 min
Source text: For UT epitope-tagged with HA (UT^HA), or c-myc (UT^c-myc), human UT receptor cDNA inserted into pcDNA3.1 (Ressource Center, MI, USA) was amplified and PCR products were subcloned using the EcoRI and XhoI sites of pCMV-HA or pCMV-c-myc. Mutant UT receptor cDNAs were constructed by oligonucleotide-directed mutagenesis (Expand High Fidelity PCR System; Roche) using the human UT receptor cDNA inserted into pcDNA3.1 as a template. Two sets of forward and reverse oligonucleotides were used (Table S2) to introduce stop codons in frame of Leu370, Phe351, Gly332 and Thr319 (to generate UT371, UT351, UT332 and UT319, respectively). PCR products were subcloned using the EcoRI and XhoI sites of pCMV-HA after digestion by the same restriction enzymes. Mutagenesis was confirmed by automated nucleotide sequencing.
Cells were plated at 50 000 cells/well in 96-well plates coated with 0.1 mg/ml poly-L-ornithine (Sigma-Aldrich). […] The cells were washed four times with PBS, a colorimetric alkaline phosphatase substrate was added (SuperSignal ELISA, Thermo scientific, Fisher) and the resulting color reaction was measured using a Viktor multilabel plate reader (PerkinElmer, Courtaboeuf, France). Background absorbance from samples transfected with non-tagged receptors or from cells without first antibodies were systematically measured. […]

[5] = system: UT in native human astrocytes; experiment: Flow cytometry of cell surface UT in native human astrocytes; conditions: hUII 10^−8 M, 30 min
Protocol: as §3, §4

Molecule	GABAAR internalization without UT [1]	GABAAR endocytosis [2]	UT at cell surface, U87 [3]	Effect on cell membrane amounts of UT^c-myc [4]	UT at cell surface, human astrocytes [5]
ETPDCFWKYCV (disulfide) [hUII, human urotensin II, synthesized by solid phase methodology]	failed to induce GABAAR internalization	40.29±4.14%	still present at the cell surface in U87	without modifying cell membrane amounts of UT^c-myc	UT internalized in native astrocytes
O=C(O)C1=CCNCC1 [Iso, isoguvacine]	remained able to provoke GABAAR removal from the plasma membrane	39.31±2.84%			
UII: Urotensin II, species not stated at that place (rUII in astrocytes, hUII in CHO and human cells)			failed to internalize UT in CHO and U87	failed to internalize UT in CHO and U87	led to UT loss from human astrocyte surface
